Legend:
Assay type in all cases: in vivo
[1] = tested on: Japanese pear (variety "Kosui") fruit; experiment: Quality deterioration of Japanese pear (Kosui) fruit after storage, Example 3; conditions: 1 ppm, after storage 25 degrees C 2 weeks
Protocol: Using a Japanese pear (variety “Kosui”) fruit (6 fruits were used per group) as an agricultural product, the following experiment was performed.
(§1) 1) A fruit and 1-methylcyclopropene (concentration 1 ppm in a chamber) were placed into a sealed chamber, and contact-treated for 16 hours under a normal pressure.
(§2) 2) A fruit was placed into a sealed chamber, and a pressure in the chamber was reduced to 25.0 kPa. Subsequently, 1-methylcyclopropene was placed therein to the concentration in the chamber of 1 ppm, and contact-treated for 1 minute under the reduced pressure (25.0 kPa).
(§3) The fruit which had been subjected to treatment of the above-mentioned 1) or 2) was stored at 25 degrees C for 2 weeks, and hardness of flesh and pH of a fruit juice which is an index for the content of an acid were measured. In addition, an extent of storage disorder was assessed by tasting. Contact treatment of the above-mentioned 1) or 2) was performed on a day of harvesting a fruit. In addition, also regarding a fruit undergoing no treatment of 1) or 2) (non-treatment), similar storage was performed, and the above-mentioned index was measured and assessed. Further, regarding non-treated fruit, the above-mentioned index before storage was also measured and assessed. Different alpha characters in Table 3 indicate that a significant difference was recognized at a risk rate of 5% (multiple range test of Newman-Keuls).

[2] = tested on: Japanese pear (variety "Shinsei") fruit; experiment: Quality deterioration of Japanese pear (Shinsei) fruit after storage, Example 2; conditions: 1 ppm, after storage 25 degrees C 2 weeks
Protocol: Using a Japanese pear (variety “Shinsei”) fruit (6 fruits were used per group) as an agricultural product, the following experiment was performed.
as §1
2) A fruit was placed into a sealed chamber, and a pressure in the chamber was reduced to 12.5 kPa. Subsequently, 1-methylcyclopropene was placed therein to the concentration in the chamber of 1 ppm, and contact-treated for 1 minute or 10 minutes under the reduced pressure (12.5 kPa).
as §3, with “In addition, browning of flesh and fruit core, which is an index for an extent” for “In addition, an extent”, “assessed by naked eyes. Contact treatment” for “assessed by tasting. Contact treatment”, “characters in the same column after storage indicate that” for “characters in Table 3 indicate that”

[3] = tested on: Japanese pear (variety "Hosui") fruit; experiment: Quality deterioration of Japanese pear (Hosui) fruit after storage, Example 4; conditions: 1 ppm, after storage 25 degrees C 2 weeks
Protocol: Using a Japanese pear (variety “Hosui”) fruit (6 fruits were used per group) as an agricultural product, the following experiment was performed.
as §1, §2
as §3, with “measured.” for “measured. In addition, an extent of storage disorder was assessed by tasting.”, “measured.” for “measured and assessed.”, “4” for “3”

[4] = tested on: apple (variety "Orin") fruit; experiment: Quality deterioration of apple (Orin) fruit after storage, Example 6; conditions: 1 ppm, after storage 25 degrees C 3 weeks
Protocol: Using an apple (variety “Orin”) fruit (6 fruits were used per group) as an agricultural product, the following experiment was performed.
as §1
2) A fruit was placed into a sealed chamber, and a pressure in the chamber was reduced to 25.0 kPa. Subsequently, 1-methylcyclopropene was placed therein to the concentration in the chamber of 1 ppm, and contact-treated for 1 hour under the reduced pressure (25.0 kPa).
3) A fruit was placed into a sealed chamber. Subsequently, a pressure in the chamber was reduced to 25.0 kPa, and the fruit was kept in the chamber for 1 hour under the reduced pressure (25.0 kPa).
The fruit which had been subjected to treatment of the above-mentioned 1), 2) or 3) was stored at 25 degrees C for 3 weeks, and hardness of flesh and mealy of flesh were measured. In addition, treatments of the above-mentioned 1), 2) and 3) were performed regarding fruits which had been stored for about 1 month after harvesting of fruit. In addition, also regarding a fruit undergoing no treatment of 1), 2) or 3) (non-treatment), similar storage was performed, and the above-mentioned index was measured. Further, regarding non-treated fruit, the above-mentioned index before storage was also measured. Different alpha characters in Table 6 indicate that a significant difference was recognized at a risk rate of 5% (multiple range test of Newman-Keuls).

[5] = tested on: peach (variety "Akatsuki") fruit; experiment: Quality deterioration of peach (Akatsuki) fruit after storage, Example 8; conditions: 1 ppm, after storage 25 degrees C 5 days, treated on day of harvest
Protocol: Using a peach (variety “Akatsuki”) fruit (6 fruits were used per group) as an agricultural product, the following experiment was performed.
1) A fruit and 1-methylcyclopropene (concentration in a chamber 1 ppm) were placed into a sealed chamber, and contact-treated for 12 hours under a normal pressure.
as §2, with “kPa). Then, the pressure was returned to a normal pressure, and contact treatment was carried out for 12 hours while the concentration of 1-methylcyclopropene in the chamber was maintained at 1 ppm.” for “kPa).”
The fruit which had been subjected to treatment of the above-mentioned 1) or 2) was stored at 25 degrees C for 5 days, and hardness of flesh was measured. In addition, contact treatment of the above-mentioned 1) or 2) was performed on a day for harvesting of a fruit. In addition, also regarding a fruit undergoing no treatment of 1) or 2) (non-treatment), similar storage was performed, and the above-mentioned index was measured. Further, regarding a non-treated fruit, the above-mentioned index before storage was also measured. […]

[6] = Reduced pressure (25.0 kPa) 1 minute
[7] = Reduced pressure (12.5 kPa) 1 minute
[8] = Reduced pressure (12.5 kPa) 10 minutes
[9] = Reduced pressure (25.0 kPa) 1 hour

CC1=CC1 [1-MCP, 1-methylcyclopropene]
Hardness of flesh ([1]; Normal pressure 16 hours): 22.44 N | Tasting ([1]; Normal pressure 16 hours): Better | pH of fruit juice ([1]; Normal pressure 16 hours): 5.22a | Hardness of flesh [1, 6]: 21.36 N | Tasting [1, 6]: Better | pH of fruit juice [1, 6]: 5.57b | Hardness of flesh ([2]; Normal pressure 16 hours): 22.74c N | Presence or absence of browning ([2]; Normal pressure 16 hours): Absence | pH of fruit juice ([2]; Normal pressure 16 hours): 4.92a | Hardness of flesh [2, 7]: 18.72b N | Presence or absence of browning [2, 7]: Absence | pH of fruit juice [2, 7]: 4.90a | Hardness of flesh [2, 8]: 22.25c N | Presence or absence of browning [2, 8]: Absence | pH of fruit juice [2, 8]: 5.00ab | Hardness of flesh ([3]; Normal pressure 16 hours): 18.72 N | pH of fruit juice ([3]; Normal pressure 16 hours): 4.37a | Hardness of flesh [3, 6]: 17.25 N | pH of fruit juice [3, 6]: 4.43a | Hardness of flesh ([4]; Normal pressure 16 hours): 42.06ab N | Mealy of flesh ([4]; Normal pressure 16 hours): Slight | Hardness of flesh [4, 9]: 44.02b N | Mealy of flesh [4, 9]: Slight | Hardness of flesh ([5]; Normal pressure 12 hours after reduced pressure (25.0 kPa) 1 minute): 6.18b N | Hardness of flesh ([5]; Normal pressure 12 hours): 2.84a N

From patent publication US20040192554A1, “Technique for effectively treating an agricultural product with a 1-substituted-cyclopropene” (priority 2003, published 2004)
